Patent US20080045580A1, “Novel Isoxazole Compounds Having Ppar Agonist Activity” (DR REDDY'S LABORATORIES LIMITED, priority 2004, published 2008)
“And” between values parts separate entries of the source, which are not always exact repeats. Identical values can stand only once. Values belong to the compound of their own block, whether it stands above or below them.

Assays:
human PPARγ1 = molecular target: T1, human PPARγ1 (Homo sapiens, UniProt P37231); assay: in vitro PPARγ transactivation (GAL4-LBD luciferase reporter in HEK-293 cells); assay type: cell-based
T1 construct: expressed in transfected cells; host or cells: HEK-293
T1 sequence (P37231 238-503 limits assumed): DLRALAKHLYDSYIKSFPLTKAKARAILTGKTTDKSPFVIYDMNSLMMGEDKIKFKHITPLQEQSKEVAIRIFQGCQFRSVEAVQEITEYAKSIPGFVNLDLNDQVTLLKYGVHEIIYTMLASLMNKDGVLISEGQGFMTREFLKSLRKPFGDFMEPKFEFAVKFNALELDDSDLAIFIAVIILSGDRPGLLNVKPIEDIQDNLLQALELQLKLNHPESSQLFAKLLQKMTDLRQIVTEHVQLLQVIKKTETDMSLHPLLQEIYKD
From the text: The following procedure was used for in vitro determination of PPARα, γ and δ transactivation.
(§1) The ligand binding domain of human PPARγ1, PPARα or PPARδ was fused to the C-terminal end of DNA binding domain of yeast transcription factor GAL4 in eukaryotic expression vector. Using SuperFect (Qiagen), HEK-293 cells were transfected with this plasmid and a reporter plasmid harboring the luciferase gene driven under the control of 5 tandem GLA4 response elements. In some experiments, pAdVantage vector (Promega) was used to enhance luciferase expression. Compounds were added approximately 48 hours after transfection at various concentrations and incubated overnight. The cells were lysed and the luciferase activity was measured using the LucLite kit in Top Count (Packard). Luciferase activity was expressed as fold activation relative to untreated cells in the same experiment.

human PPARα = molecular target: T2, human PPARα (Homo sapiens, UniProt Q07869); assay: in vitro PPARα transactivation (GAL4-LBD luciferase reporter in HEK-293 cells); assay type: cell-based
T2 construct: expressed in transfected cells; host or cells: HEK-293
T2 sequence (Q07869 239-466 limits assumed): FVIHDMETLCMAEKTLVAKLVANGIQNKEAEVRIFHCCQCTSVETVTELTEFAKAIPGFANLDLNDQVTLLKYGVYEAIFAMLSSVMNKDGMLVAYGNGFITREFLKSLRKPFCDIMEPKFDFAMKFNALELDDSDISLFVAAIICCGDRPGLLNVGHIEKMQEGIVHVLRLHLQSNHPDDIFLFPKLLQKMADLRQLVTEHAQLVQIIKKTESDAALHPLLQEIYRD
From the text: Generally, suitable PPAR agonists are believed to be useful for attenuating and/or treatment of diabetic dyslipidemia, metabolic syndrome, diabetes, cardiovascular disease, and obesity. The following procedure was used for in vitro determination of PPARα, γ and δ transactivation.
as §1

Male Swiss albino mice = assay: plasma triglyceride lowering in Swiss albino mice; assay type: in vivo; conditions: plasma triglycerides
Experimental: Male Swiss albino mice (SAM) were obtained from National Institute Nutrition (NIN, Hyderabad, India) and housed in Dr. Reddy's Laboratories Ltd (DRL) animal house. All these animals were maintained under 12 hour light and dark cycle at 25±1° C. Animals were given standard laboratory chow (NIN, Hyderabad, India) and water, ad libitum. Mice of 20-25 grams body weight range were used. See Olivier, et al., Atherosclerosis, 1988, 70:107-114, incorporated herein by reference in its entirety. The test compounds were administered orally to mice at the doses shown in the following in table for 6 days. […] After centrifugation, plasma was separated for plasma triglyceride and total cholesterol measurement. See Wieland, Methods of Enzymatic Analysis, Bergermeyer, ed., 1963, 211-214; Trinder, Ann. Clin. Biochenz., 1969, 6:24-27, incorporated herein by reference in their entireties. Measurement of cholesterol and plasma triglyceride was done using a […] autoanalyser (Merck). The percent reductions in plasma triglycerides (TG)/total cholesterol were calculated according to the following formula: [formula] OC=Zero day control group value OT=Zero day treated group value TC=Test day control group value TT=Test day treated group value.

[1] = tested on: hypercholesterolemic Male Sprague Dawley rats; assay: lipid lowering in hypercholesterolemic Sprague Dawley rats; assay type: in vivo; conditions: hypercholesterolemic SD rats, 3 mg/kg orally for 3 days; for % Reduction TG: plasma triglycerides; for % Reduction TC: total cholesterol; for HDL % increase: values represent % increase
Experimental: Male Sprague Dawley rats (NIN stock) were bred in DRL animal house. Animals were maintained under 12 hour light and dark cycle at 25±1° C. Rats of 180-200 gram body weight range were used for the experiment. Animals were made hypercholesterolemic by feeding 2% cholesterol and 1% sodium cholate mixed with standard laboratory chow (NIN) for 6 days. Throughout the experimental period the animals were maintained on the same diet. Control rats were treated with vehicle alone (0.25% CMC; 10 ml/kg). Blood samples were collected in fed state 1 hour after drug administration on 0 and 3 days of treatment from the retro-orbital sinus through heparinized capillary tubes containing EDTA. After centrifugation, plasma sample was separated for total cholesterol, HDL and plasma triglyceride measurement. Measurement of total cholesterol, HDL and plasma triglyceride was done using a Vitalab Selectra autoanalyser (Merck). HDL was measured using a commercial kit. LDL and VLDL cholesterol were calculated from the data obtained for total cholesterol, HDL and plasma triglyceride.
The percent reductions in plasma triglycerides (TG)/total cholesterol (TC) were calculated as described in Example 55. The levels of LDL and VLDL cholesterol were calculated according to the following formulas: LDL cholesterol in mg/dl=[Total cholesterol−HDL cholesterol−Triglyceride/5] VLDL cholesterol in mg/dl=[Total cholesterol−HDL cholesterol−LDL cholesterol]

SMILES: CC[C@@](C)(Oc1ccc(OCCCc2cc(-c3ccccc3)no2)cc1)C(=O)O [Example 15]
- melting point: 105 to 108 °C

SMILES: CC(C)(Sc1ccc(OCc2cc(-c3ccc(C(F)(F)F)cc3)no2)cc1)C(=O)O [Example 14]
- melting point: 120 to 122 °C

SMILES: CC(C)(Oc1ccc(OCc2cc(-c3ccc(-c4ccccc4)cc3)no2)cc1)C(=O)O [Example 18]
- melting point: 168 to 170 °C

SMILES: CCOC(=O)C1(Oc2ccc(OCc3cc(-c4ccccc4)no3)cc2)CCCC1 [Example 2]
- PPARγ luciferase fold activation relative to untreated cells (human PPARγ1; 1 μM): 1.4
- PPARγ luciferase fold activation relative to untreated cells (human PPARγ1; 10 μM): 2.4
- PPARγ luciferase fold activation relative to untreated cells (human PPARγ1; 50 μM): 2.4
- melting point: 83 to 85 °C
- PPARα luciferase fold activation relative to untreated cells (human PPARα; 1 μM): 1.2
- PPARα luciferase fold activation relative to untreated cells (human PPARα; 10 μM): 1.0
- PPARα luciferase fold activation relative to untreated cells (human PPARα; 50 μM): 1.0

SMILES: O=C(O)[C@]1(Cc2ccc(OCc3cc(-c4ccc(C(F)(F)F)cc4)no3)cc2)CCCO1 [Example 37]
- % reduction in TG (Male Swiss albino mice; 3 mg/kg orally for 6 days): 69%
- % Reduction TG [1]: 68%
- % Reduction TC [1]: 69%
- % Reduction LDL ([1]; LDL cholesterol calculated from TC, HDL, TG): 75%
- HDL % increase [1]: 138%

SMILES: CC[C@@](C)(Oc1ccc(OCc2cc(-c3ccc(OS(C)(=O)=O)cc3)no2)cc1)C(=O)O [Example 26]
- PPARγ luciferase fold activation relative to untreated cells (human PPARγ1; 1 μM): 0.1
- PPARγ luciferase fold activation relative to untreated cells (human PPARγ1; 10 μM): 1.0
- PPARγ luciferase fold activation relative to untreated cells (human PPARγ1; 50 μM): 5.3
- PPARα luciferase fold activation relative to untreated cells (human PPARα; 1 μM): 1.8
- PPARα luciferase fold activation relative to untreated cells (human PPARα; 10 μM): 5.7
- PPARα luciferase fold activation relative to untreated cells (human PPARα; 50 μM): 5.8
- % reduction in TG (Male Swiss albino mice; 1 mg/kg orally for 6 days): 50%

SMILES: CC(C)(Oc1ccc(CCCc2cc(-c3ccccc3)no2)cc1)C(=O)O [Example 28, 2-methyl-2-{4-[3-(3-phenylisoxazol-5-yl)propyl]phenoxy}propanoic acid]
- PPARγ luciferase fold activation relative to untreated cells (human PPARγ1; 1 μM): 2.0
- PPARγ luciferase fold activation relative to untreated cells (human PPARγ1; 10 μM): 2.8
- PPARγ luciferase fold activation relative to untreated cells (human PPARγ1; 50 μM): 12.4
- PPARα luciferase fold activation relative to untreated cells (human PPARα; 1 μM): 1.5
- PPARα luciferase fold activation relative to untreated cells (human PPARα; 10 μM): 4.8
- PPARα luciferase fold activation relative to untreated cells (human PPARα; 50 μM): 5.9
- % reduction in TG (Male Swiss albino mice; 3 mg/kg orally for 6 days): 48%
- % Reduction TG [1]: 62%
- % Reduction TC [1]: 70%
- HDL % increase [1]: 132%

SMILES: Cc1cccc(Nc2cc(Cl)nc(SCC(=O)O)n2)c1C [Wyeth 14643, reference compound]
- PPARα luciferase fold activation relative to untreated cells (human PPARα; 10 μM): 1.7 and 1.6 and 1.4 and 2.5 and 2.7 and 2.4
- PPARα luciferase fold activation relative to untreated cells (human PPARα; 50 μM): 3.4 and 5.0 and 4.2 and 5.2 and 4.1 and 6.1 and 4.6 and 4.0

SMILES: CCC(C)(Oc1ccc(OCc2cc(-c3ccc(OCc4ccccc4)cc3)no2)cc1)C(=O)O (stereo not shown) [Example 3]
- melting point: 132 to 134 °C

SMILES: CCC(C)(Oc1ccc(OCc2cc(-c3ccc(O)cc3)no2)cc1)C(=O)O (stereo not shown) [Example 4]
- melting point: 142 to 144 °C

SMILES: CCC(C)(Oc1ccc(OCc2cc(-c3ccc(-c4ccccc4)cc3)no2)cc1)C(=O)O (stereo not shown) [Example 19]
- melting point: 188 to 190 °C

SMILES: CCC(C)(Oc1ccc(OCCCc2cc(-c3ccc(C(F)(F)F)cc3)no2)cc1)C(=O)O (stereo not shown) [Example 21]
- melting point: 110 to 112 °C

SMILES: CCC(C)(Oc1ccc(OC/C=C/c2cc(-c3ccccc3)no2)cc1)C(=O)O (stereo not shown) [Example 20]
- melting point: 118 to 120 °C

SMILES: CC(C)(Oc1ccc(OCc2cc(-c3ccc(C(F)(F)F)cc3)no2)cc1)C(=O)O [Example 12]
- melting point: 166 to 168 °C

SMILES: CCC(C)(Oc1ccc(OCc2cc(-c3ccc([N+](=O)[O-])cc3)no2)cc1)C(=O)O (stereo not shown) [Example 22]
- melting point: 128 to 130 °C

Second part, led by results:

- PPARγ luciferase fold activation relative to untreated cells (human PPARγ1; 1 μM): 1.2
- PPARγ luciferase fold activation relative to untreated cells (human PPARγ1; 10 μM): 0.9
- PPARγ luciferase fold activation relative to untreated cells (human PPARγ1; 50 μM): 2.4
- melting point: 135 to 137 °C
- PPARα luciferase fold activation relative to untreated cells (human PPARα; 1 μM): 0.8
- PPARα luciferase fold activation relative to untreated cells (human PPARα; 10 μM): 1.2
- PPARα luciferase fold activation relative to untreated cells (human PPARα; 50 μM): 1.7
SMILES: O=C(O)C1(Oc2ccc(OCc3cc(-c4ccccc4)no3)cc2)CCCC1 [Example 9]

- melting point: 98 to 100 °C
SMILES: CCC(C)(Oc1ccc(OCCCc2cc(-c3ccc(C)cc3)no2)cc1)C(=O)O (stereo not shown) [Example 32, 2-Methyl-2-{4-[3-(3-(4-methylphenyl)isoxazol-5-yl)propoxy]phenoxy}butyric acid]

- melting point: 118 to 120 °C
SMILES: CCC(C)(Oc1ccc(OCc2cc(-c3ccc(F)cc3)no2)cc1)C(=O)O (stereo not shown) [Example 23]

- melting point: 121 to 122 °C
SMILES: CC[C@](C)(Oc1ccc(OCCCc2cc(-c3ccccc3)no2)cc1)C(=O)O [Example 16]

- PPARγ luciferase fold activation relative to untreated cells (human PPARγ1; 1 μM): 1.8
- PPARγ luciferase fold activation relative to untreated cells (human PPARγ1; 10 μM): 3.9
- PPARγ luciferase fold activation relative to untreated cells (human PPARγ1; 50 μM): 9.0
- PPARα luciferase fold activation relative to untreated cells (human PPARα; 1 μM): 1.1 (1.1)
- PPARα luciferase fold activation relative to untreated cells (human PPARα; 10 μM): 3.9
- PPARα luciferase fold activation relative to untreated cells (human PPARα; 50 μM): 4.7
SMILES: O=C(O)C1(Cc2ccc(OCc3cc(-c4ccccc4)no3)cc2)CCCO1 (stereo not shown) [Example 39]
- % reduction in TG (Male Swiss albino mice; 3 mg/kg orally for 6 days): 44%

- PPARγ luciferase fold activation relative to untreated cells (human PPARγ1; 1 μM): 0.5
- PPARγ luciferase fold activation relative to untreated cells (human PPARγ1; 10 μM): 1.2
- PPARγ luciferase fold activation relative to untreated cells (human PPARγ1; 50 μM): 4.1
- melting point: 70 to 74 °C
- PPARα luciferase fold activation relative to untreated cells (human PPARα; 1 μM): 1.3
- PPARα luciferase fold activation relative to untreated cells (human PPARα; 10 μM): 2.6
- PPARα luciferase fold activation relative to untreated cells (human PPARα; 50 μM): 3.5
SMILES: CCC(C)(Oc1ccc(OCc2cc(-c3ccccc3)no2)cc1)C(=O)O (stereo not shown) [Example 8]
- % reduction in TG (Male Swiss albino mice; 3 mg/kg orally for 6 days): 52%

- melting point: 100 to 102 °C
SMILES: CCC(C)(Oc1ccc(OCc2cc(-c3ccc(C)cc3)no2)cc1)C(=O)OC (stereo not shown) [Example 29, 2-Methyl-2-[4-(3-(4-methylphenyl)isoxazol-5-ylmethoxy)phenoxy]butyric acid, methyl ester]

- melting point: 106 to 108 °C
SMILES: Cc1cc(SCc2cc(-c3ccc(C(F)(F)F)cc3)no2)ccc1OC(C)(C)C(=O)O [Example 13]

- melting point: 130 to 132 °C
SMILES: CCC(C)(Oc1ccc(OCCCc2cc(-c3ccc(Cl)cc3)no2)cc1)C(=O)O (stereo not shown) [Example 34, 2-Methyl-2-{4-[3-(3-(4-chlorophenyl)isoxazol-5-yl)propoxy]phenoxy}butyric acid]

- melting point: 138 to 140 °C
SMILES: CCC(C)(Oc1ccc(OCc2cc(-c3ccc(C)cc3)no2)cc1)C(=O)O (stereo not shown) [Example 30, 2-Methyl-2-[4-(3-(4-methylphenyl)isoxazol-5-ylmethoxy)phenoxy]butyric acid]
